Data: patent US20260167619A2, “INDOLINE COMPOUNDS AND DERIVATIVES AS EGFR INHIBITORS” (BeOne Medicines I GmbH, priority 2020, published 2026)

How the values were obtained:
[1] = target: EGFR(Dell9_T790M_C797S) (aa 669-1210, in house) (Homo sapiens, UniProt P00533, T790M/C797S, form not given); assay: Biochemical EGFR inhibition assay (TR-FRET), Del19/T790M/C797S mutant; settings: ATP at Km, 15 min pre-incubation, 60 min reaction; read-out: Del_TM_CS (Km ATP) IC50
Protocol: (§1) Compounds were tested for inhibition of kinase activity against EGFR (aa668-1210, Invitrogen), EGFR(L858R_T790M_C797S) (aa695-end, Invitrogen) and EGFR(Dell9_T790M_C797S) (aa 669-1210, in house) in assays based on time-resolved fluorescence-resonance energy transfer (TR-FRET) methodology. Recombinant EGFR, EGFR(L858R_T790M_C797S) or EGFR(Dell9_T790M_C797S) was pre-incubated with the compounds at room temperature for 15 minutes in an assay buffer containing 50 mM HEPES pH7.5, 10 mM MgCl2, 2 mM DTT, 1 mM EGTA, 0.1% BSA, 0.01% Tween-20. The reactions were initiated by the addition of ATP (at the concentration of ATP Km) and substrate Biotin-Poly GT. After reaction at room temperature for 60 minutes, stop/detection solution was added. The stop/detection solution contained Eu^3+ cryptate-conjugated mouse monoclonal antibody (PT66) anti-phosphotyrosine and XL665-conjugated streptavidin in buffer containing 50 mM HEPES pH7.0, 800 mM KF, 20 mM EDTA, and 0.1% BSA. Plates were sealed and incubated at room temperature for 1 hour, and the TR-FRET signals (ratio of fluorescence emission at 665 nm over emission at 620 nm with excitation at 337 nm wavelength) were recorded on a PHERAstar FS plate reader (BMG Labtech). The residual enzyme activity in presence of increasing concentrations of compounds was calculated based on the ratio of fluorescence at 665 nm to that at 620 nm. The IC50 for each compound was derived from fitting the data to the four-parameter logistic equation by Dotmatics or Graphpad Prism software.
(§2) These biochemical EGFR enzyme form compound dose-response assays quantify the kinase activity via phosphorylation of a tagged poly-GT substrate. The results of the assay are provided as IC50 values.

[2] = target: T1, EGFR (aa668-1210, Invitrogen) (Homo sapiens, UniProt P00533); assay: Biochemical EGFR inhibition assay (TR-FRET), wild-type EGFR; settings: ATP at Km, 15 min pre-incubation, 60 min reaction; read-out: WT (Km ATP) IC50
T1 construct: EGFR (aa668-1210, Invitrogen); purchased Invitrogen
Protocol: as §1, §2

[3] = target: T2, EGFR(L858R_T790M_C797S) (aa695-end, Invitrogen) (Homo sapiens, UniProt P00533, C797S/L858R/T790M); assay: Biochemical EGFR inhibition assay (TR-FRET), L858R/T790M/C797S mutant; settings: ATP at Km, 15 min pre-incubation, 60 min reaction; read-out: LR_TM_CS (Km ATP) IC50
T2 construct: purchased Invitrogen
Protocol: as §1, §2

T1 sequence (P00533 668-1210): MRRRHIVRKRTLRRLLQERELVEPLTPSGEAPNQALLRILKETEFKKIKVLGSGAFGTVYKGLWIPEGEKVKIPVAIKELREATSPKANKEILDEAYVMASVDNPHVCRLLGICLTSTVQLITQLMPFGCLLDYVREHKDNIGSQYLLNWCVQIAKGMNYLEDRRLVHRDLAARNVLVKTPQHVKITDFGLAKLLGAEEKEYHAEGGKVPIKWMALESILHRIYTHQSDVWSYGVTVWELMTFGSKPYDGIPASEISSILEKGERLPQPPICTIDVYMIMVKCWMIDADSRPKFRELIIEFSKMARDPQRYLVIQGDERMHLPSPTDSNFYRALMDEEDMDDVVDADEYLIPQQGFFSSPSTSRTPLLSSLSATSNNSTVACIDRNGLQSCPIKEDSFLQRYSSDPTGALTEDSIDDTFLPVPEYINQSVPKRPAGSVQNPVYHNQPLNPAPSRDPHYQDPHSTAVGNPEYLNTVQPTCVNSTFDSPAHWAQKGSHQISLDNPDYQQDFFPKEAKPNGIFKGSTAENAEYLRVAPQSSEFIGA
T2 sequence (P00533 695-1210 T790M/C797S/L858R): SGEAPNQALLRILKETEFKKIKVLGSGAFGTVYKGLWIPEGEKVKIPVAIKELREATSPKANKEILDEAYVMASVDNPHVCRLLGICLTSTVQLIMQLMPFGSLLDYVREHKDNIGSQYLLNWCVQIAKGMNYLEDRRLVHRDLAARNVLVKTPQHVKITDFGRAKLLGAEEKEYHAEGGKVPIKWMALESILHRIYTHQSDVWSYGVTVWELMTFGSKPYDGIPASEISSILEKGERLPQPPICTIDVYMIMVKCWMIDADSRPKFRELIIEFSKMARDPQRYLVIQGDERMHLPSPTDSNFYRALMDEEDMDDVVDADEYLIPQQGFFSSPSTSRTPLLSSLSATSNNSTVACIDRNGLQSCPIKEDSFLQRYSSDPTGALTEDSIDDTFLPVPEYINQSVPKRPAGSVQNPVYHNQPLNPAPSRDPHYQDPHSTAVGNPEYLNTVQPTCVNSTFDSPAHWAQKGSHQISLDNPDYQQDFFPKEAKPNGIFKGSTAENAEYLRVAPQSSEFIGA
Chain of EGFR(Dell9_T790M_C797S) (aa 669-1210, in house) (P00533 with tags, fused parts or gaps DEL746-750/T790M/C797S, form open): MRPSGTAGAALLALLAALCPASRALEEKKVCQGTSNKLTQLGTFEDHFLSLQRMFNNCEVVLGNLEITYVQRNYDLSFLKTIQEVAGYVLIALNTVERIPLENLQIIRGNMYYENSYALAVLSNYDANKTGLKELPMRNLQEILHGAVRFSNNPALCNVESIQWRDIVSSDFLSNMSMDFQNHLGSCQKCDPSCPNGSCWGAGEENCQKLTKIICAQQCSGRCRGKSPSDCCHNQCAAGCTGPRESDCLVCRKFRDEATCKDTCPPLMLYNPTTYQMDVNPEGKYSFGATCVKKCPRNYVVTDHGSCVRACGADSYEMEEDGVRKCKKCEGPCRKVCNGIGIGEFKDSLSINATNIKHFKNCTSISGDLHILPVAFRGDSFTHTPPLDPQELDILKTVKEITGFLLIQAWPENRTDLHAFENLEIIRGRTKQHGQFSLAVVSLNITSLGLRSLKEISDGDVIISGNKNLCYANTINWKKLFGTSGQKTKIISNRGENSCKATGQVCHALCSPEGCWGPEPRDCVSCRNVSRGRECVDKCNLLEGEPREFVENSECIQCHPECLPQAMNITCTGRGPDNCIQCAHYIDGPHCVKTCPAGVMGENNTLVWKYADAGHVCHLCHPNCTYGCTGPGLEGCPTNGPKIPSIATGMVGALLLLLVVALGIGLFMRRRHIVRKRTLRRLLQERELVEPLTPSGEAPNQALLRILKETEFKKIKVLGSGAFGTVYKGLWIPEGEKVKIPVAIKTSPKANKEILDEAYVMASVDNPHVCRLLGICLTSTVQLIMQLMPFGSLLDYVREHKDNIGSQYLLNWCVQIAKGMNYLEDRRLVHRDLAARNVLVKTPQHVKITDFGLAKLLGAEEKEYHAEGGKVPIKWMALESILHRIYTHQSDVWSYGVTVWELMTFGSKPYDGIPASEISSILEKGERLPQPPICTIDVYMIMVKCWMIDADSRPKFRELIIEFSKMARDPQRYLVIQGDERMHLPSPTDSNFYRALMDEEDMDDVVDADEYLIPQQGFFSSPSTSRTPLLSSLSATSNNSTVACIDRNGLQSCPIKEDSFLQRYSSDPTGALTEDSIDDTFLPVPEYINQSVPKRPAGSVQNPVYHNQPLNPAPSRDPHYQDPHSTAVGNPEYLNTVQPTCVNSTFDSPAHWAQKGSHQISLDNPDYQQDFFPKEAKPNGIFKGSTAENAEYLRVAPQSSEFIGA

SMILES	IC50 [1]	IC50 [2]	IC50 [3]
COc1cc(N2CCC(N3CCN(C)CC3)CC2)c(C)cc1Nc1ncc(Br)c(Nc2cccc3c2N(S(C)(=O)=O)CC32CC2)n1 [Example 181, 5-bromo-N2-(2-methoxy-5-methyl-4-(4-(4-methylpiperazin-1-yl)piperidin-1-yl)phenyl)-N4-(1′-(methylsulfonyl)spiro[cyclopropane-1,3′-indolin]-7′-yl)pyrimidine-2,4-diamine]	0.6 nM	0.9 nM	0.3 nM
COc1cc(Nc2nc(Nc3cccc4c3N(S(C)(=O)=O)CC4)c3cc[nH]c3n2)ccc1N1CCC(N2CCN(C)CC2)CC1 [Example 81, N^2-(3-methoxy-4-(4-(4-methylpiperazin-1-yl)piperidin-1-yl)phenyl)-N^4-(1-(methylsulfonyl)indolin-7-yl)-7H-pyrrolo[2,3-d]pyrimidine-2,4-diamine]	0.76 nM	82.7 nM	0.44 nM
CN1CCN(c2c(F)cc(Nc3ncc(Br)c(Nc4cccc5c4N(S(C)(=O)=O)CC5)n3)c3c2CCO3)CC1 [Example 58, 5-bromo-N^2-(5-fluoro-4-(4-methylpiperazin-1-yl)-2,3-dihydrobenzofuran-7-yl)-N^4-(1-(methylsulfonyl)indolin-7-yl)pyrimidine-2,4-diamine]	1.57 nM	10.3 nM	1.7 nM
CN1CCN(C2CCN(c3ccc(Nc4ncc(Br)c(Nc5cccc6c5N(S(C)(=O)=O)CC6)n4)c4c3CC(C)(C)O4)CC2)CC1 [Example 57, 5-bromo-N^2-(2,2-dimethyl-4-(4-(4-methylpiperazin-1-yl)piperidin-1-yl)-2,3-dihydrobenzofuran-7-yl)-N^4-(1-(methylsulfonyl)indolin-7-yl)pyrimidine-2,4-diamine]	8.79 nM	101 nM	17.1 nM
COc1cc(N2CCC(N3CCN(C)C4(CC4)C3)CC2)ccc1Nc1nc(Nc2cccc3c2N(S(C)(=O)=O)CC3)c2cc[nH]c2n1 [Example 189, N2-(2-methoxy-4-(4-(4-methyl-4,7-diazaspiro[2.5]octan-7-yl)piperidin-1-yl)phenyl)-N4-(1-(methylsulfonyl)indolin-7-yl)-7H-pyrrolo[2,3-d]pyrimidine-2,4-diamine]	1.2 nM	35.3 nM	0.9 nM
CC1Cc2c(N3CCC(N4CCN(C)CC4)CC3)ccc(Nc3ncc(Br)c(Nc4cccc5c4N(S(C)(=O)=O)CC5)n3)c2O1 (stereo not drawn) [Example 61, 5-bromo-N^2-(2-methyl-4-(4-(4-methylpiperazin-1-yl)piperidin-1-yl)-2,3-dihydrobenzofuran-7-yl)-N^4-(1-(methylsulfonyl)indolin-7-yl)pyrimidine-2,4-diamine]	1.58 nM	15.2 nM	1.5 nM
CN(C)C1CCN(c2ccc(Nc3ncc(Br)c(Nc4cccc5c4N(S(C)(=O)=O)CC5)n3)c3c2CC(C)(C)O3)CC1 [Example 55, 5-bromo-N^2-(4-(4-(dimethylamino)piperidin-1-yl)-2,2-dimethyl-2,3-dihydrobenzofuran-7-yl)-N^4-(1-(methylsulfonyl)indolin-7-yl)pyrimidine-2,4-diamine]	5.82 nM	64.5 nM	7 nM
CCN1CCN(C2CCN(c3c(F)cc(Nc4nc(Nc5cccc6c5N(S(C)(=O)=O)CC6)c5cc[nH]c5n4)cc3F)CC2)CC1 [Example 78, N^2-(4-(4-(4-ethylpiperazin-1-yl)piperidin-1-yl)-3,5-difluorophenyl)-N^4-(1-(methylsulfonyl)indolin-7-yl)-7H-pyrrolo[2,3-d]pyrimidine-2,4-diamine]	2 nM	99 nM	1.5 nM
COc1cc(C2CCN(CCN(C)C)CC2)c(C)cc1Nc1nc(Nc2cccc3c2N(S(C)(=O)=O)CC3)c2cc[nH]c2n1 [Example 109, N^2-(4-(1-(2-(dimethylamino)ethyl)piperidin-4-yl)-2-methoxy-5-methylphenyl)-N^4-(1-(methylsulfonyl)indolin-7-yl)-7H-pyrrolo[2,3-d]pyrimidine-2,4-diamine]	10 nM	433 nM	3.1 nM
COc1cc(N2[C@@H]3CC[C@H]2CN(C)C3)ccc1Nc1nc(Nc2cccc3c2N(S(C)(=O)=O)CC3)c2cc[nH]c2n1 [Example 111, N^2-(2-methoxy-4-((1R,5S)-3-methyl-3,8-diazabicyclo[3.2.1]octan-8-yl)phenyl)-N^4-(1-(methylsulfonyl)indolin-7-yl)-7H-pyrrolo[2,3-d]pyrimidine-2,4-diamine]	11.1 nM	146 nM	2.8 nM
COc1cc(N2CCN(C)[C@@H](C)C2)c(C)cc1Nc1ncc(Br)c(Nc2cccc3c2N(S(C)(=O)=O)CC3)n1 [Example 43, (S)-5-bromo-N^2-(4-(3,4-dimethylpiperazin-1-yl)-2-methoxy-5-methylphenyl)-N^4-(1-(methylsulfonyl)indolin-7-yl)pyrimidine-2,4-diamine]	0.5 nM	12.1 nM	0.5 nM
CC1Cc2c(N3CCC(N(C)C)CC3)ccc(Nc3ncc(Br)c(Nc4cccc5c4N(S(C)(=O)=O)CC5)n3)c2O1 (stereo not drawn) [Example 65, 5-bromo-N^2-(4-(4-(dimethylamino)piperidin-1-yl)-2-methyl-2,3-dihydrobenzofuran-7-yl)-N^4-(1-(methylsulfonyl)indolin-7-yl)pyrimidine-2,4-diamine]	0.63 nM	5.5 nM	0.48 nM
COc1cc(N2C[C@@H]3C[C@H]2CN3C)ccc1Nc1nc(Nc2cccc3c2N(S(C)(=O)=O)CC3)c2cc[nH]c2n1 [Example 110, N^2-(2-methoxy-4-((1S,4S)-5-methyl-2,5-diazabicyclo[2.2.1]heptan-2-yl)phenyl)-N^4-(1-(methylsulfonyl)indolin-7-yl)-7H-pyrrolo[2,3-d]pyrimidine-2,4-diamine]	10.7 nM	572 nM	5.1 nM

Now those with a lower IC50 [1], led by results:

IC50 [1]	IC50 [2]	IC50 [3]	SMILES
0.39 nM	0.9 nM	0.44 nM	COc1cc(N2CCC(N3CCN(C)CC3)CC2)ccc1Nc1ncc(Br)c(Nc2cccc3c2N(S(C)(=O)=O)CC32CC2)n1 [Example 28, 5-bromo-N^2-(2-methoxy-4-(4-(4-methylpiperazin-1-yl)piperidin-1-yl)phenyl)-N^4-(1′-(methylsulfonyl)spiro[cyclopropane-1,3′-indolin]-7′-yl)pyrimidine-2,4-diamine]
0.3 nM	8.5 nM	0.4 nM	COc1cc(N2C[C@@H](C)N(C)[C@@H](C)C2)c(C)cc1Nc1ncc(Br)c(Nc2cccc3c2N(S(C)(=O)=O)CC3)n1 [Example 42, 5-bromo-N^2-(2-methoxy-5-methyl-4-((3S,5R)-3,4,5-trimethylpiperazin-1-yl)phenyl)-N^4-(1-(methylsulfonyl)indolin-7-yl)pyrimidine-2,4-diamine]
0.3 nM	1 nM	0.2 nM	COc1cc(N2CCC3(CC2)CN(C)C3)c(C)cc1Nc1ncc(Br)c(Nc2cccc3c2N(S(C)(=O)=O)CC3)n1 [Example 45, 5-bromo-N^2-(2-methoxy-5-methyl-4-(2-methyl-2,7-diazaspiro[3.5]nonan-7-yl)phenyl)-N^4-(1-(methylsulfonyl)indolin-7-yl)pyrimidine-2,4-diamine]
0.28 nM	6.5 nM	0.32 nM	CN(C)C1CCN(c2ccc(Nc3ncc(Br)c(Nc4cccc5c4N(S(C)(=O)=O)CC5)n3)c3c2CCC3)CC1 [Example 53, 5-bromo-N^2-(7-(4-(dimethylamino)piperidin-1-yl)-2,3-dihydro-1H-inden-4-yl)-N^4-(1-(methylsulfonyl)indolin-7-yl)pyrimidine-2,4-diamine]
0.24 nM	1.1 nM	0.2 nM	CN(C)C1CCN(c2c(F)cc(Nc3ncc(Br)c(Nc4cccc5c4N(S(C)(=O)=O)CC5)n3)c3c2CCO3)CC1 [Example 59, 5-bromo-N^2-(4-(4-(dimethylamino)piperidin-1-yl)-5-fluoro-2,3-dihydrobenzofuran-7-yl)-N^4-(1-(methylsulfonyl)indolin-7-yl)pyrimidine-2,4-diamine]
0.2 nM	16.5 nM	0.1 nM	CN1CCN(C2CCN(c3ccc(Nc4nc(Nc5cccc6c5N(S(C)(=O)=O)CC6)c5cc[nH]c5n4)cc3)CC2)CC1 [Example 194, N2-(4-(4-(4-methylpiperazin-1-yl)piperidin-1-yl)phenyl)-N4-(1-(methylsulfonyl)indolin-7-yl)-7H-pyrrolo[2,3-d]pyrimidine-2,4-diamine]
